The values below come from ChEMBL document CHEMBL1132622, “Synthesis, structure-activity relationships, and in vivo evaluations of substituted di-tert-butylphenols as a novel class of potent, selective, and orally active cyclooxygenase-2 inhibitors. 2. 1,3,4- and 1,2,4-thiadiazole series” (J Med Chem, 1999).

As usually defined, the IC50 is the concentration needed to halve the response being measured.

Test [1] addresses Prostaglandin G/H synthase 1 (Homo sapiens, UniProt P23219). The test can be described thus: IC50 value against Prostaglandin G/H synthase 1 of human platelet rich plasma. Type of test: cell-free.
Test [2] concerns the target T1, Prostaglandin G/H synthase 2 (Mus musculus, UniProt Q05769).
T1 sequence (Q05769 whole entry): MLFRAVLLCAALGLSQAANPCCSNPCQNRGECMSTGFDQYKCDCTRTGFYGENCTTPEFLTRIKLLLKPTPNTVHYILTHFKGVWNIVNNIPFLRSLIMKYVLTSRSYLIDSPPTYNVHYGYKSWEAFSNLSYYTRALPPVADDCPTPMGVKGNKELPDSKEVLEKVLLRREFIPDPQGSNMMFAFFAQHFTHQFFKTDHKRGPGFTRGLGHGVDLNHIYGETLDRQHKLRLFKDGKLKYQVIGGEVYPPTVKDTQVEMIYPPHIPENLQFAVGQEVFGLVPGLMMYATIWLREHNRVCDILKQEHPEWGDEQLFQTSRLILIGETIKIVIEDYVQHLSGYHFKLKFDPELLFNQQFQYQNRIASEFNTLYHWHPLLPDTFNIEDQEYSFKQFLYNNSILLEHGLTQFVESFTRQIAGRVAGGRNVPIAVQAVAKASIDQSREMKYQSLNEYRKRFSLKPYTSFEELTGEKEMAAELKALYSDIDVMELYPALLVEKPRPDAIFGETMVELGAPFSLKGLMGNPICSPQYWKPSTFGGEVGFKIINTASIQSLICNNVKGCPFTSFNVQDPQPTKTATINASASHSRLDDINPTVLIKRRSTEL

Test [3] has as its target T2, Prostaglandin G/H synthase 2 (Homo sapiens, UniProt P35354).
T2 sequence (P35354 whole entry): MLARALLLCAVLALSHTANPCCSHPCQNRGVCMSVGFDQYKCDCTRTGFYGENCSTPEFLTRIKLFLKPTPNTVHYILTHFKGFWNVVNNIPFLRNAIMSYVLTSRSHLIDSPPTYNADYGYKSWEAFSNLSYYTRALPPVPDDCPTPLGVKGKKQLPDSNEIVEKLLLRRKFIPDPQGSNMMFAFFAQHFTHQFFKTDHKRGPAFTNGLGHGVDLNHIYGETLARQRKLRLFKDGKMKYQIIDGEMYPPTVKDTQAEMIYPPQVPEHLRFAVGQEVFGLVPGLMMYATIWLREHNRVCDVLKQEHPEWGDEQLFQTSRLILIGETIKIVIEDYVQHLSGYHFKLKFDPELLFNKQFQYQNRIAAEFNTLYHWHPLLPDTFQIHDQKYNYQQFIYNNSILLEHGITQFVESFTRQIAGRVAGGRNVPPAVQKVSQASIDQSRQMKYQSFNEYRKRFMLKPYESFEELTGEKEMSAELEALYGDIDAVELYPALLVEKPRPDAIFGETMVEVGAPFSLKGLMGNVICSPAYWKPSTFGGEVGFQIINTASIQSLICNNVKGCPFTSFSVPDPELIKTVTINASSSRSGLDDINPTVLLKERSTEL
The test can be described thus: Inhibition of recombinant human prostaglandin G/H synthase 2 (COX-2).

The target of test [4] is T3, Prostaglandin G/H synthase 1 (Ovis aries, UniProt P05979).
T3 sequence (P05979 whole entry): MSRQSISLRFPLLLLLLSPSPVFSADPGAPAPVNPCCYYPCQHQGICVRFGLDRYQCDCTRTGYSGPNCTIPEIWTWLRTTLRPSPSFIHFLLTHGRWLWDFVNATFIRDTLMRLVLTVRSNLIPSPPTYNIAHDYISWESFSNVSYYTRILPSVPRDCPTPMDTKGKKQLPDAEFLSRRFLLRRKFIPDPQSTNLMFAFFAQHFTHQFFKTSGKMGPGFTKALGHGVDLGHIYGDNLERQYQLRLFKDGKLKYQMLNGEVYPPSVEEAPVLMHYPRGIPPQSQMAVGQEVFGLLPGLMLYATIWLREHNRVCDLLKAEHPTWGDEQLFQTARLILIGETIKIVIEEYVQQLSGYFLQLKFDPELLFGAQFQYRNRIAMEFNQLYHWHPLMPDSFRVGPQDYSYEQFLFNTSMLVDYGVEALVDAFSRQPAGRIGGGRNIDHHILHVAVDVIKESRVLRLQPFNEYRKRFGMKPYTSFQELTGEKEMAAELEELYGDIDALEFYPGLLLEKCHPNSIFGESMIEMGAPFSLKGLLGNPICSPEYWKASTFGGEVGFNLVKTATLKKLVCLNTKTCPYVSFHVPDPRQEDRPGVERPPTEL
Briefly: IC50 value against ovine Prostaglandin G/H synthase 1.

Test [5] concerns the target T1, Prostaglandin G/H synthase 2. The test can be described thus: IC50 value against Prostaglandin G/H synthase 2 of murine J774A.1 cell line.

A value given as a limit tells only on which side of the number the result lay.

Sequence of Prostaglandin G/H synthase 1 (Homo sapiens, UniProt P23219) (P23219 whole entry): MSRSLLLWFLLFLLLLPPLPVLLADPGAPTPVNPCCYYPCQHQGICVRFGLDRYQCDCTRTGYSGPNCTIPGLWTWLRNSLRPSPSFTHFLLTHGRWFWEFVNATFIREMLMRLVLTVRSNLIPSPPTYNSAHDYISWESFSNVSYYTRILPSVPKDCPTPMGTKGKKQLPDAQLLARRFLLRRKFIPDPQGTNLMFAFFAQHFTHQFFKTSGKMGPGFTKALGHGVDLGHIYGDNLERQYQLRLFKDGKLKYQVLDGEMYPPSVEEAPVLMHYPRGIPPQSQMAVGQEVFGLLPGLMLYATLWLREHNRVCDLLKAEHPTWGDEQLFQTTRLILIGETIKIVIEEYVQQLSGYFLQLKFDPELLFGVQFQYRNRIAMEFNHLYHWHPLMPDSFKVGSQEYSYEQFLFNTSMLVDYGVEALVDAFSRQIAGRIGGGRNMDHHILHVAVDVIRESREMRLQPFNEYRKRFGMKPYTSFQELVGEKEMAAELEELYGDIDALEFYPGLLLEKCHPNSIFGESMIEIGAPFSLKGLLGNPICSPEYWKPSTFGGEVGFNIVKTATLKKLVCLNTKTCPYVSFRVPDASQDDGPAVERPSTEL

Consider `CC(C)(C)c1cc(-c2nnc(S)o2)cc(C(C)(C)C)c1O`, for which the IC50 in test [1] was above 20 µM; in test [2] it was 0.92 µM; in test [3], 47 µM; in test [4], above 20 µM.

With `CC(C)(C)c1cc(-c2nnc(SCc3ccccc3)s2)cc(C(C)(C)C)c1O`, the 50% inhibitory concentration (IC50) in test [1], in test [2], in test [3] and in test [4] was above 20 µM each time.

Turning to `CCCOc1nnc(-c2cc(C(C)(C)C)c(O)c(C(C)(C)C)c2)s1`, the IC50 in test [1] is 3.6 µM; in test [3], above 20 µM; in test [4], above 20 µM; in test [5], “Not Active”.

As for `CCSc1nnc(-c2cc(C(C)(C)C)c(O)c(C(C)(C)C)c2)o1`, the IC50 is 1.9 µM in test [1], 0.015 µM in test [2], 6.5 µM in test [3] and above 20 µM in test [4].

As to `CC(C)Sc1nnc(-c2cc(C(C)C)c(O)c(C(C)C)c2)s1`, the IC50 in test [3] and in test [4] was above 20 µM in each case.

Consider `COC(=O)CCSc1nnc(-c2cc(C(C)(C)C)c(O)c(C(C)(C)C)c2)s1`, for which the IC50 in test [1] is 9.9 µM; in test [3] it was above 20 µM; in test [4], above 20 µM; in test [5], “Not Active”.

On to `COc1c(C(C)(C)C)cc(-c2nnc(SC)s2)cc1C(C)(C)C`, for which the IC50 is 0.77 µM in test [1], 0.012 µM in test [2], 0.34 µM in test [3] and 5.8 µM in test [4].

With `CC(C)(C)c1cc(-c2nnc(O)s2)cc(C(C)(C)C)c1O`, the IC50 is 4.1 µM in test [1], 0.24 µM in test [2], above 20 µM in test [3] and above 20 µM in test [4].

`CC[S+]([O-])c1nnc(-c2cc(C(C)(C)C)c(O)c(C(C)(C)C)c2)s1` (centres undefined): the half-maximal inhibitory concentration (IC50) in test [1] is 14.6 µM; in test [2], 0.23 µM; in test [3] it was above 20 µM; in test [4] it was above 20 µM.

`COc1nc(-c2cc(C(C)(C)C)c(O)c(C(C)(C)C)c2)ns1`: the IC50 came to 100 µM in test [3] and 24 µM in test [4].

As to `CC(C)(C)c1cc(-c2nc(=O)s[nH]2)cc(C(C)(C)C)c1O`, the IC50 in test [1] was 0.43 µM; in test [2], 0.018 µM; in test [3], 1.1 µM; in test [4], 83 µM.

As to `CCOc1nnc(-c2cc(C(C)(C)C)c(O)c(C(C)(C)C)c2)s1`, the IC50 in test [1] turned out to be 1.2 µM; in test [2], 0.07 µM; in test [3], 6.1 µM; in test [4], 3.4 µM.

For the molecule `CC(C)(C)c1cc(-c2nnc(NN)s2)cc(C(C)(C)C)c1O`, the IC50 is 3.2 µM in test [1], 3.7 µM in test [2], 1.3 µM in test [3] and 17 µM in test [4].

`CC(C)(C)c1cc(-c2nnc(S)s2)cc(C(C)(C)C)c1O`: the IC50 was above 20 µM in test [1], 0.35 µM in test [2] and 20 µM in test [4].

For `CCN(CC)CCSc1nnc(-c2cc(C(C)(C)C)c(O)c(C(C)(C)C)c2)s1`, the IC50 in test [1] was above 20 µM; in test [2], above 20 µM; in test [3], 19 µM; in test [4], above 20 µM.

As to `CC(C)Oc1nnc(-c2cc(C(C)(C)C)c(O)c(C(C)(C)C)c2)s1`, the half-maximal inhibitory concentration (IC50) in test [1] was 4.5 µM; in test [3], above 20 µM; in test [4], above 20 µM; in test [5], “Not Active”.

`CCSc1nnc(-c2cc(C(C)C)c(O)c(C(C)C)c2)s1`: the IC50 in test [1] is above 20 µM; in test [2] it was 1.3 µM; in test [3], above 20 µM; in test [4], above 20 µM.

With `CC(C)(C)c1cc(-c2nnc(N=C(N)N)s2)cc(C(C)(C)C)c1O`, the IC50 was 2.8 µM in test [1], 0.21 µM in test [2], 17 µM in test [3] and 88 µM in test [4].

As to `CSc1nnc(-c2cc(C(C)(C)C)c(O)c(C(C)(C)C)c2)s1`, the IC50 came to 0.18 µM in test [1], 0.009 µM in test [2], 0.15 µM in test [3] and 0.51 µM in test [4].

As for `CC(C)(C)c1cc(-c2nnc(O)o2)cc(C(C)(C)C)c1O`, the IC50 in test [1] was 3.2 µM; in test [2], above 20 µM; in test [3], above 20 µM; in test [4], above 20 µM.

On to `COc1c(C(C)(C)C)cc(-c2nnc(S)s2)cc1C(C)(C)C`, for which the IC50 in test [1] was above 20 µM; in test [2], 0.3 µM; in test [3] it was 1.5 µM; in test [4], above 20 µM.

Regarding `CC(C)(C)c1cc(-c2noc(NC#N)n2)cc(C(C)(C)C)c1O`, the 50% inhibitory concentration (IC50) in test [1] stood at 1.2 µM; in test [2], 1.4 µM; in test [3] it was 0.064 µM; in test [4], 51 µM.

On to `CSc1nnc(-c2cc(C(C)(C)C)c(O)c(C(C)(C)C)c2)o1`, for which the IC50 came to 1.2 µM in test [1], 0.14 µM in test [2] and 12 µM in test [4].

Consider `CNc1nnc(-c2cc(C(C)(C)C)c(O)c(C(C)(C)C)c2)s1`, for which the IC50 was 0.3 µM in test [1], 0.69 µM in test [2], 9.6 µM in test [3] and 0.52 µM in test [4].

As to `CCSc1nnc(-c2cc(C(C)(C)C)c(O)c(C(C)(C)C)c2)s1`, the 50% inhibitory concentration (IC50) was 3.1 µM in test [1], 0.18 µM in test [2], 0.14 µM in test [3] and 100 µM in test [4].

On to `CC(C)(C)c1cc(-c2nsc(N)n2)cc(C(C)(C)C)c1O`, for which the IC50 in test [3] and in test [4] was above 20 µM each time.

For the molecule `C[S+]([O-])c1nnc(-c2cc(C(C)(C)C)c(O)c(C(C)(C)C)c2)s1` (centres undefined), the IC50 in test [1], in test [3] and in test [4] was above 20 µM in each case.

As to `CC(=O)Nc1nc(-c2cc(C(C)(C)C)c(O)c(C(C)(C)C)c2)ns1`, the IC50 in test [3] and in test [4] was above 20 µM each time.

As for `CCCSc1nnc(-c2cc(C(C)C)c(O)c(C(C)C)c2)s1`, the IC50 in test [1] was above 20 µM; in test [2], 1.5 µM; in test [3], above 20 µM; in test [4], above 20 µM.

As to `CC(C)(C)c1cc(-c2nsc(NS(C)(=O)=O)n2)cc(C(C)(C)C)c1O`, the IC50 in test [3] and in test [4] was above 20 µM each time.

Turning to `COc1nnc(-c2cc(C(C)(C)C)c(O)c(C(C)(C)C)c2)s1`, the IC50 was determined as 0.2 µM in test [1], 3 µM in test [3] and 2.6 µM in test [4].

On to `CC(C)(C)c1cc(-c2nsc(N=C(N)N)n2)cc(C(C)(C)C)c1O`, for which the IC50 in test [1] was 1.7 µM; in test [2], above 20 µM; in test [3] it was 27 µM; in test [4], 24 µM.

Take `CSc1nnc(-c2nc(C(C)(C)C)c(O)c(C(C)(C)C)n2)s1`: the IC50 in test [1] was 0.2 µM; in test [2], 0.026 µM; in test [4] it was 0.097 µM.

On to `CC(C)Sc1nnc(-c2cc(C(C)(C)C)c(O)c(C(C)(C)C)c2)s1`, for which the IC50 is 13.6 µM in test [1], 8.5 µM in test [2], above 20 µM in test [3] and above 20 µM in test [4].

For the molecule `CC(C)(C)c1cc(-c2nnc(NC#N)o2)cc(C(C)(C)C)c1O`, the values for the IC50 in test [1], in test [2] and in test [3] were 5.8 µM, 0.39 µM and 11 µM, respectively.
